Experimental data reported in patent US4010161A, “Piperazinoethyl-N-(2,3-dimethyl-5-oxo-1-phenyl-3Δ-pyrazolin- 4-yl)carbamates” (Synthelabo, priority 1973, dated 1977).
Where a name gives a salt, the structure may show the parent alone.

Tests used:
[1] = Acute toxicity, 50% lethal dose in mice; settings: mouse, in vivo, po; mice (CD1 strain, both sexes), per os; 50% lethal dose calculated graphically
Protocol: The experiments were carried out on mice of the CDl strain, of both sexes, and the 50% lethal doses were calculated graphically.

[2] = test system: pain induced, in CDl mice, by the intraperitoneal injection of acetic acid; test: Koster test: pain induced by intraperitoneal injection of acetic acid; type: in vivo; settings: Mus musculus, po, per os, AD50 = 50% active dose
Excerpt: (§1) This effect was investigated in accordance with three conventional experimental procedures.
a. Effect against pain induced, in CDl mice, by the intraperitoneal injection of acetic acid, using the method described by Koster and colleagues (Fed. Proc., 1959, 18, 42) and modified by Peterfalvi, Branceni and colleagues, (Med. Pharmacol. exp., 1966, 15, 254).

[3] = test system: oedema induced by carragenine in SJ rats; test: Oedema induced by carragenine (anti-inflammatory effect); type: in vivo; settings: Rattus norvegicus, po, per os, AD40 = 40% active dose, read-out: Inflammation induced by carragenine AD40
Excerpt: The test of oedema induced by carragenine in SJ rats, in accordance with the technique of Winter and colleagues, (Proc. Soc. exp. Biol. Med., 1962, III, 544) was used. The effects of the compounds of the invention are markedly lower than that of the reference product.

Solubility in water = type: physicochemical
CD1 mice, tail-pinching = test: Haffner tail-pinching test; type: in vivo; settings: Mus musculus, po, per os, AD50 = 50% active dose
Excerpt: as §1
c. Tail-pinching test on CD1 mice, using the method of Haffner (Deutsch. med. Wachr., 1959, 55, 731).

Row | Structure (SMILES) | LD50 [1] | ED50 [2] | ED40 [3] | solubility in water (Solubility in water) | ED50 (CD1 mice, tail-pinching)
1 | Cc1c(NC(=O)OCCN2CCN(c3cccc(SC(F)(F)F)c3)CC2)c(=O)n(-c2ccccc2)n1C [SLB-208, 2-(4-m-Trifluoromethylthiophenyl-piperazino)-ethyl N-(2,3-dimethyl-5-oxo-1-phenyl-3Δ-pyrazolin-4-yl)-carbamate] | > 1000 mg/kg | 17 mg/kg | 76 mg/kg | – | –
2 | Cc1c(NC(=O)OCCN(C)C)c(=O)n(-c2ccccc2)n1C [SLB-215, 2-Dimethylamino-ethyl N-(2,3-dimethyl-5-oxo-1-phenyl-3Δ-pyrazolin-4-yl)-carbamate] | > 1000 mg/kg | 60 mg/kg | > 100 mg/kg | very soluble in water | –
3 | Cc1c(NC(=O)OCCN2CCN(c3ccccc3)CC2)c(=O)n(-c2ccccc2)n1C [SLB-197, 2-(4-Phenyl-piperazino)-ethyl N-(2,3-dimethyl-5-oxo-1-phenyl-3Δ-pyrazolin-4-yl)-carbamate] | 400 mg/kg | 30 mg/kg | > 100 mg/kg | – | –
4 | Cc1c(NC(=O)OCCN2CCN(c3cccc(Cl)c3)CC2)c(=O)n(-c2ccccc2)n1C [2-(4-m-chlorophenyl-piperazino)-ethyl N-(2,3-dimethyl-5-oxo-1-phenyl-3Δ-pyrazolin-4-yl)-carbamate tartrate] | – | – | – | very soluble in water | –
5 | Cc1c(NC(=O)OCCN2CCN(c3cccc(Cl)c3)CC2)c(=O)n(-c2ccccc2)n1C [SLB-207, 2-(4-m-Chlorophenyl-piperazino)-ethyl N-(2,3-dimethyl-5-oxo-1-phenyl-3Δ-pyrazolin-4-yl)-carbamate] | 990 mg/kg | 8 mg/kg | 100 mg/kg | – | 10 mg/kg
6 | Cc1ccc(N2CCN(CCOC(=O)Nc3c(C)n(C)n(-c4ccccc4)c3=O)CC2)cc1 [SLB-209, 2-(4-p-Tolyl-piperazino)-ethyl N-(2,3-dimethyl-5-oxo-1-phenyl-3Δ-pyrazolin-4-yl)-carbamate] | 410 mg/kg | 25 mg/kg | > 100 mg/kg | – | 15 mg/kg
7 | Cc1c(NC(=O)OCCN2CCN(c3cccc(C(F)(F)F)c3)CC2)c(=O)n(-c2ccccc2)n1C [SLB-186, 2-(4-m-Trifluoromethylphenyl-piperazino)-ethyl N-(2,3-dimethyl-5-oxo-1-phenyl-3Δ-pyrazolin-4-yl)-carbamate hydrochloride] | 2000 mg/kg | 8 mg/kg | 100 mg/kg | – | 10 mg/kg
8 | Cc1c(N(C)C)c(=O)n(-c2ccccc2)n1C [Aminopyrine, reference compound] | – | 40 mg/kg | 50 mg/kg | – | 75 mg/kg
